Literature values in article PMC9318694 (Molecules, 2022).
Read-outs that look alike come from different tables or passages of the source.

Target: D2R (Homo sapiens, UniProt P14416)
Details: read-out: KI, cited from earlier work
[1] = Table S2, data set of inactives, radio-ligand binding (RLB) assays, ref ChEMBL, [71]-[92]
[2] = Table S1, data set of actives, radio-ligand binding assays, ref ChEMBL, [50]-[70]

Sequence of D2R (P14416 whole entry): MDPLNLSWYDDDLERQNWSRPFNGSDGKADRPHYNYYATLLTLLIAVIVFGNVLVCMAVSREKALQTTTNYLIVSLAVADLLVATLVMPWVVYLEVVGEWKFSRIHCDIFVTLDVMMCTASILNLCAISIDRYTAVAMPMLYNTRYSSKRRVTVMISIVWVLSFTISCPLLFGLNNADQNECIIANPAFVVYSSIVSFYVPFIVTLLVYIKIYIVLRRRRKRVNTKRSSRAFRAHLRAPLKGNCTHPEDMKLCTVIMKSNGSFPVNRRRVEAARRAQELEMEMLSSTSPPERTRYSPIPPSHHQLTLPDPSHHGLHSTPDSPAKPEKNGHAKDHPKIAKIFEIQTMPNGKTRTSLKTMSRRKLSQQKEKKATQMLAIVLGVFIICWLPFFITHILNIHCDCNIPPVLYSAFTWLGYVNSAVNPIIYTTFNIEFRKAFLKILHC

Structure (SMILES)	Ki [1]	Ki [2]	further results
COc1cccc(CCc2ccccc2OCCCCN2CCN(C)CC2)c1 [SC116, 1-[4-[2-[2-(3-methoxyphenyl)ethyl]phenoxy]butyl]-4-methylpiperazine]	> 1000 µM		
CCCNC1CCn2ncc(C(=O)OC)c2C1 (stereo not shown) [SC94, methyl 5-(propylamino)-4,5,6,7-tetrahydropyrazolo[1,5-a]pyridine-3-carboxylate]	> 100 µM		
C#CC1=CC[C@H](N(CCC)CCCCNC(=O)c2ccc(OCCCc3cnn(CCCC)n3)c(OC)c2)CC1 [SC14, (R)-4-(3-(2-butyl-2H-1,2,3-triazol-4-yl)propoxy)-N-(4-((4-ethynylcyclohex-3-en-1-yl)(propyl)amino)butyl)-3-methoxybenzamide]		0.0042 µM	
Cc1ccc(CNCC2(F)CCN(C(=O)c3cc(Br)cs3)CC2)nc1 [SC96, (4-bromothiophen-2-yl)-[4-fluoro-4-[[(5-methylpyridin-2-yl)methylamino]methyl]piperidin-1-yl]methanone]	100 µM		
Oc1ccc(C2=CCC[C@@H](CN3CC=C(c4ccccc4)CC3)C2)cc1 [SC33, (R)-3'-((4-phenyl-3,6-dihydropyridin-1(2H)-yl)methyl)-2',3',4',5'-tetrahydro-[1,1'-biphenyl]-4-ol]			Ki: 0.00062 µM
FCCOc1ccc(N2CCN(Cc3cnn4ccccc34)CC2)cc1 [SC98, 3-[[4-[4-(2-fluoroethoxy)phenyl]piperazin-1-yl]methyl]pyrazolo[1,5-a]pyridine]	79 µM		
COc1cc2c(cc1OC)CN(C=Nc1ccc3c(c1)C1SCCSC1CC3)CC2 (stereo not shown) [SC64, N-(2,3,4a,5,6,10b-hexahydrobenzo[f][1,4]benzodithiin-9-yl)-1-(6,7-dimethoxy-3,4-dihydro-1H-isoquinolin-2-yl)methanimine]	> 300 µM		
CCCCn1c(=O)n2c3c(cccc31)C[C@@H](NC)C2 [SC39, (R)-1-butyl-5-(methylamino)-5,6-dihydro-4H-imidazo[4,5,1-ij]quinolin-2(1H)-one]		0.0128 µM	
COc1cccc(CCc2ccccc2OCCN2CCN(c3ccccc3OC)CC2)c1 [SC120, 1-(2-methoxyphenyl)-4-[2-[2-[2-(3-methoxyphenyl)ethyl]phenoxy]ethyl]piperazine]	427 µM		
Oc1ccc2c(c1)O[C@@H](CNCCN1CCN(c3ccc(OCCF)cc3)CC1)CC2 [SC23, (R)-2-(((2-(4-(4-(2-fluoroethoxy)phenyl)piperazin-1-yl)ethyl)amino)methyl)chroman-7-ol]		0.00667 µM	
CN[C@@H]1Cc2cccc3c2n(c(=O)n3CCOCCOCCOCCCCc2ccccc2)C1 [SC45, (R)-5-(methylamino)-1-(2-(2-(2-(4-phenylbutoxy)ethoxy)ethoxy)ethyl)-5,6-dihydro-4H-imidazo[4,5,1-ij]quinolin-2(1H)-one]		0.0347 µM	
CCCN(CCC)[C@@H]1CCn2nccc2C1 [SC97, (5R)-N,N-dipropyl-4,5,6,7-tetrahydropyrazolo[1,5-a]pyridin-5-amine]	55 µM		
C1=C(c2ccccc2)CCN(C[C@@H]2CCC=C(c3ccccc3)C2)C1 [SC32, (R)-4-phenyl-1-((2,3,4,5-tetrahydro-[1,1'-biphenyl]-3-yl)methyl)-1,2,3,6-tetrahydropyridine]			Ki: 0.0084 µM
COc1cccc(CCc2ccccc2OCCN2CCc3cc(OC)c(OC)cc3C2)c1 [SC114, 6,7-dimethoxy-2-[2-[2-[2-(3-methoxyphenyl)ethyl]phenoxy]ethyl]-3,4-dihydro-1H-isoquinoline]	> 1000 µM		
CN[C@@H]1Cc2cccc3c2n(c(=O)n3CCCCCCCCCCCCOc2ccc3c(c2)NC(=O)CC3)C1 [SC51, (R)-5-(methylamino)-1-(12-((2-oxo-1,2,3,4-tetrahydroquinolin-7-yl)oxy)dodecyl)-5,6-dihydro-4H-imidazo[4,5,1-ij]quinolin-2(1H)-one]		0.284 µM	
COc1cccc(CCc2ccccc2OCCCN2CCc3cc(OC)c(OC)cc3C2)c1 [SC115, 6,7-dimethoxy-2-[3-[2-[2-(3-methoxyphenyl)ethyl]phenoxy]propyl]-3,4-dihydro-1H-isoquinoline]			Ki: > 1000 µM
COc1cccc(CCc2ccccc2OCCCCN2CCN(c3ccccc3OC)CC2)c1 [SC122, 1-(2-methoxyphenyl)-4-[4-[2-[2-(3-methoxyphenyl)ethyl]phenoxy]butyl]piperazine]	67 µM		
COc1cccc(CCc2ccccc2OCCCN2CCN(c3cccc(C(F)(F)F)c3)CC2)c1 [SC105, 1-[3-[2-[2-(3-methoxyphenyl)ethyl]phenoxy]propyl]-4-[3-(trifluoromethyl)phenyl]piperazine]	1410 µM		
CN[C@@H]1Cc2cccc3c2n(c(=O)n3CCCCOc2ccc3c(c2)NC(=O)CC3)C1 [SC44, (R)-5-(methylamino)-1-(4-((2-oxo-1,2,3,4-tetrahydroquinolin-7-yl)oxy)butyl)-5,6-dihydro-4H-imidazo[4,5,1-ij]quinolin-2(1H)-one]		0.338 µM	
Fc1ccc(N2CCN(Cc3cn4ccncc4n3)CC2)cc1 [SC95, 2-[[4-(4-fluorophenyl)piperazin-1-yl]methyl]imidazo[1,2-a]pyrazine]	68 µM		

Structure (SMILES)	Ki [1]	Ki [2]	further results
C#CC1=CC[C@@H](N(CCC)CCCCNC(=O)c2ccc(OCCCc3cn(CCCC)nn3)c(OC)c2)CO1 [SC34, (R)-4-(3-(1-butyl-1H-1,2,3-triazol-4-yl)propoxy)-N-(4-((6-ethynyl-3,4-dihydro-2H-pyran-3-yl)(propyl)amino)butyl)-3-methoxybenzamide]		0.0016 µM	
COc1cccc(CCc2ccccc2OCCCCN2CCN(c3ncccn3)CC2)c1 [SC117, 2-[4-[4-[2-[2-(3-methoxyphenyl)ethyl]phenoxy]butyl]piperazin-1-yl]pyrimidine]	854 µM		
CCCCn1cc(CCCOc2ccc(C(=O)NCCCCN(CCC)C3Cc4ccccc4C3)cc2OC)nn1 [SC3, 4-(3-(1-butyl-1H-1,2,3-triazol-4-yl)propoxy)-N-(4-((2,3-dihydro-1H-inden-2-yl)(propyl)amino)butyl)-3-methoxybenzamide]		0.012 µM	
CCCN(CCCCNC(=O)c1cc2ccccc2[nH]1)[C@@H]1Cc2cccc3c2n(c(=O)n3CCC)C1 [SC47, (R)-N-(4-((2-oxo-1-propyl-1,2,5,6-tetrahydro-4H-imidazo[4,5,1-ij]quinolin-5-yl)(propyl)amino)butyl)-1H-indole-2-carboxamide]			Ki: 0.00843 µM
CC(C)CCN1CCN2c3cccc4[nH]cc(c34)CC2C1 (stereo not shown) [SC25, 8-isopentyl-6,6a,7,8,9,10-hexahydro-4H-pyrazino[1,2-a]pyrrolo[4,3,2-de]quinoline]		0.024 µM	
CN[C@@H]1Cc2cccc3c2n(c(=O)n3CCOCCOCCOCCOc2ccc3c(c2)NC(=O)CC3)C1 [SC48, (R)-5-(methylamino)-1-(2-(2-(2-(2-((2-oxo-1,2,3,4-tetrahydroquinolin-7-yl)oxy)ethoxy)ethoxy)ethoxy)ethyl)-5,6-dihydro-4H-imidazo[4,5,1-ij]quinolin-2(1H)-one]		0.306 µM	
COc1ccccc1N1CCN(CCCCCNC(=O)OC(C)(C)C)CC1 [SC31, tert-butyl (5-(4-(2-methoxyphenyl)piperazin-1-yl)pentyl)carbamate]		0.012 µM	
CCCN[C@@H]1Cc2cccc3c2n(c(=O)n3CCC)C1 [SC41, (R)-1-propyl-5-(propylamino)-5,6-dihydro-4H-imidazo[4,5,1-ij]quinolin-2(1H)-one]		0.00808 µM	
O=C1NCCc2ccc(OCCCN3CCN(c4cccc(Cl)c4Cl)CC3)cc21 [SC5, 7-(3-(4-(2,3-dichlorophenyl)piperazin-1-yl)propoxy)-3,4-dihydroisoquinolin-1(2H)-one]		0.018 µM	
COc1cccc(CCc2ccccc2OCCCCN2CCc3ccccc3C2)c1 [SC113, 2-[4-[2-[2-(3-methoxyphenyl)ethyl]phenoxy]butyl]-3,4-dihydro-1H-isoquinoline]	> 1000 µM		
COc1cccc(CCc2ccccc2OCCCCN2CCc3cc(OC)c(OC)cc3C2)c1 [SC112, 6,7-dimethoxy-2-[4-[2-[2-(3-methoxyphenyl)ethyl]phenoxy]butyl]-3,4-dihydro-1H-isoquinoline]	> 1000 µM		
C#CC1=CC[C@H](N(CCC)CCCCNC(=O)c2ccc(OCCCc3cn(CCCC)nn3)c(OC)c2)CO1 [SC35, (S)-4-(3-(1-butyl-1H-1,2,3-triazol-4-yl)propoxy)-N-(4-((6-ethynyl-3,4-dihydro-2H-pyran-3-yl)(propyl)amino)butyl)-3-methoxybenzamide]		0.0049 µM	
COc1cccc(CCc2ccccc2OCCCCCN2CCN(c3ccc(F)cc3)CC2)c1 [SC119, 1-(4-fluorophenyl)-4-[5-[2-[2-(3-methoxyphenyl)ethyl]phenoxy]pentyl]piperazine]	847 µM		
COc1cccc(CCc2ccccc2OCCCCCN2CCN(c3cccc(Cl)c3)CC2)c1 [SC103, 1-(3-chlorophenyl)-4-[5-[2-[2-(3-methoxyphenyl)ethyl]phenoxy]pentyl]piperazine]	> 1000 µM		
COc1ccccc1N1CCN(CCCNC(=O)OC(C)(C)C)CC1 [SC30, tert-butyl (3-(4-(2-methoxyphenyl)piperazin-1-yl)propyl)carbamate]		0.0158 µM	
CCCN(CCN1CCN(c2nccc3ccccc23)CC1)[C@H]1CCc2nc(N)sc2C1 [SC56, (S)-N6-(2-(4-(isoquinolin-1-yl)piperazin-1-yl)ethyl)-N6-propyl-4,5,6,7-tetrahydrobenzo[d]thiazole-2,6-diamine]		0.269 µM	
Clc1cccc(C2CCN(CCCOc3ccc4scnc4c3)CC2)c1Cl [SC7, 5-(3-(4-(2,3-dichlorophenyl)piperidin-1-yl)propoxy)benzo[d]thiazole]		0.075 µM	
CCCN(CCC)[C@@H]1Cc2cccc3nc(O)n(c23)C1 [SC17, (R)-5-(dipropylamino)-5,6-dihydro-4H-imidazo[4,5,1-ij]quinolin-2-ol]		0.0114 µM	
CCCN(CCN1CCN(c2ccc(-c3ccccc3)cc2)CC1)[C@H]1CCc2nc(N)sc2C1 [SC53, (S)-N6-(2-(4-([1,1'-biphenyl]-4-yl)piperazin-1-yl)ethyl)-N6-propyl-4,5,6,7-tetrahydrobenzo[d]thiazole-2,6-diamine]		0.264 µM	
CCCN(CCN1CCN(c2cccc3ncccc23)CC1)[C@H]1CCc2nc(N)sc2C1 [SC55, (S)-N6-propyl-N6-(2-(4-(quinolin-5-yl)piperazin-1-yl)ethyl)-4,5,6,7-tetrahydrobenzo[d]thiazole-2,6-diamine]		0.0577 µM	
